Results on 5 molecules are retold here after ChEMBL document CHEMBL1201862, “PubChem BioAssay data set” (2004).

Among the test systems are A498; CCRF-CEM; HCT-116; HCT-15; K562; MOLT-4; Malme-3M; NCI-H226; NCI-H460; SK-MEL-28; SK-MEL-2; SK-OV-3; SNB-75; TK-10; U-251; UACC-257; UACC-62; CAKI-1.
Common to all, as to assay: growth of human tumour cells (NCI), 48 h

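These data come from cells grown in 96-well plates and exposed to compound for 48 hours at five concentrations. At the GI50, growth is halved.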 Calls of active or inactive are those of the source. No stated cut-off is given here; in the data, active = GI50 up to about 1.1 µM and inactive = higher.

For the molecule `CCOC(=O)C12CN(C34CC5CC(CC(C5)C3)C4)CC(C(=O)OCC)(C1=O)C(c1ccccc1)OC2c1ccccc1` (stereo unspecified), the GI50 in the experiment with A498 was > 100 µM (inactive); in the experiment on CCRF-CEM, 44.3 µM (inactive); in the experiment on HCT-116, > 10 µM (inactive); with HCT-15, above 100 µM; in the experiment with K562 it was 31.4 µM (inactive); with MOLT-4 it was 35.6 µM (inactive). Also, the GI50 is > 100 µM (inactive) in the experiment with Malme-3M; 89.7 µM (inactive) in the experiment on NCI-H226; > 100 µM (inactive) in the experiment on NCI-H460; > 100 µM (inactive) with SK-MEL-28; > 100 µM (inactive) with SK-MEL-2; > 100 µM (inactive) with SK-OV-3. The GI50 with SNB-75 was 39.7 µM (inactive); with TK-10 it was > 100 µM (inactive); in the experiment with U-251 it was > 100 µM (inactive); with UACC-257, > 100 µM (inactive); in the experiment on UACC-62 it was > 100 µM (inactive).

Turning to `Cc1c(-c2coc(-c3ccc([N+](=O)[O-])cc3)n2)c(=O)n(-c2ccccc2)n1C`, the GI50 in the experiment with A498 was > 100 µM (inactive); with CCRF-CEM, > 100 µM (inactive); in the experiment on HCT-116, > 100 µM (inactive); in the experiment on HCT-15 it was above 100 µM; in the experiment on MOLT-4, > 100 µM (inactive); in the experiment on Malme-3M, > 100 µM (inactive). For the same molecule, the GI50 with NCI-H226, with NCI-H460, in the experiment on SK-MEL-28, with SK-MEL-2, with SK-OV-3 and in the experiment on SNB-75 was > 100 µM (inactive) each time. Moreover, the GI50 in the experiment on TK-10, in the experiment on U-251, in the experiment on UACC-257 and in the experiment on UACC-62 was > 100 µM (inactive) in each case.

As to `CC(=O)OCCC(O[Si](c1ccccc1)(c1ccccc1)C(C)(C)C)C(C)(C)O` (stereo unspecified), the GI50 is > 100 µM (inactive) in the experiment on A498; 24.6 µM (inactive) in the experiment with CCRF-CEM; 17.3 µM (inactive) with HCT-116; 31.1 µM in the experiment with HCT-15; 31.6 µM (inactive) in the experiment on K562; 24 µM (inactive) in the experiment on MOLT-4. Also, the GI50 in the experiment with Malme-3M is > 100 µM (inactive); in the experiment on NCI-H226, 19.5 µM (inactive); in the experiment with NCI-H460, 32.1 µM (inactive); in the experiment on SK-MEL-28, 51.2 µM (inactive); in the experiment with SK-MEL-2, 75 µM (inactive); in the experiment on SK-OV-3, 42.7 µM (inactive). The GI50 with SNB-75 was 35.6 µM (inactive); with TK-10, 34.4 µM (inactive); with U-251, 36.3 µM (inactive); in the experiment with UACC-257, 26.5 µM (inactive); with UACC-62, 53.8 µM (inactive).

As for `O=C(CC1(O)C(=O)Nc2ccccc21)c1ccc(Cl)cc1Cl` (stereo unspecified), the GI50 was > 100 µM (inactive) in the experiment with A498; > 100 µM (inactive) with CAKI-1; > 100 µM (inactive) with HCT-116; above 100 µM in the experiment on HCT-15; > 100 µM (inactive) in the experiment with K562; > 100 µM (inactive) in the experiment with MOLT-4. In addition, the GI50 is > 100 µM (inactive) in the experiment with Malme-3M; 71.6 µM (inactive) in the experiment with NCI-H226; > 100 µM (inactive) with SK-MEL-28; > 100 µM (inactive) in the experiment on SK-MEL-2; > 100 µM (inactive) with SK-OV-3; > 100 µM (inactive) in the experiment on SNB-75. Besides, the GI50 in the experiment with TK-10, in the experiment on UACC-257 and with UACC-62 was > 100 µM (inactive) each time.

As for `N#CC(C(=O)CCC(=O)Nc1ccc(Cl)c(Cl)c1)c1ccc(Cl)cc1` (stereo unspecified), the GI50 in the experiment on A498 is > 100 µM (inactive); in the experiment on CAKI-1, 37.3 µM (inactive); with HCT-116, > 100 µM (inactive); with HCT-15, 17.1 µM; with K562, 14.6 µM (inactive); with MOLT-4, 53.7 µM (inactive). Besides, the GI50 with Malme-3M was > 100 µM (inactive); in the experiment on NCI-H226, > 100 µM (inactive); in the experiment with NCI-H460 it was > 100 µM (inactive); with SK-MEL-28, > 100 µM (inactive); in the experiment on SK-MEL-2, 22.9 µM (inactive); with SNB-75 it was 51.1 µM (inactive). Further, the GI50 in the experiment with TK-10 was > 100 µM (inactive); with U-251, > 100 µM (inactive); in the experiment with UACC-257, > 100 µM (inactive); in the experiment with UACC-62 it was 11.6 µM (inactive).
